{
  "source": "patent US7998959B2",
  "about": "“Modulators of 11-β hydroxyl steroid dehydrogenase type 1, pharmaceutical compositions thereof, and methods of using the same” (Incyte Corporation, priority 2006, dated 2011)",
  "origin": "cited, not measured here",
  "key": {"healthy volunteers": {"tested_on": "healthy volunteers", "settings": "after seven days of treatment"}, "[1]": {"tested_on": "pancreatic islet cells of ob/ob mice"}, "[2]": {"tested_on": "primary hippocampal cells"}},
  "data": [
    {"smiles": "CC1(C)[C@@H](OC(=O)CCC(=O)O)CC[C@]2(C)[C@H]3C(=O)C=C4[C@@H]5C[C@@](C)(C(=O)O)CC[C@]5(C)CC[C@@]4(C)[C@]3(C)CC[C@@H]12", "note": "[carbenoxolone]", "values": [
      {"measurement": "IOP reduced", "setting": "healthy volunteers", "value": 18, "unit": "%"},
      {"measurement": "glucose-stimulated insulin release", "setting": "[1]", "value": "improves glucose-stimulated insulin release"},
      {"measurement": "protection from glucocorticoid-mediated exacerbation of excitatory amino acid neurotoxicity", "setting": "[2]", "value": "protects the cells from glucocorticoid-mediated exacerbation of excitatory amino acid neurotoxicity"},
      {"measurement": "negative effects of glucocorticoids on bone nodule formation", "setting": "bone nodule formation", "value": "attenuate the negative effects of glucocorticoids on bone nodule formation"}
    ]}
  ]
}
